The values below come from publication PMC5889476 (Biochimie Open, 2015).

The target in data set [1] is T1, rFKBP22 (E. coli FKBP22) (Escherichia coli, UniProt P0A9L3, I65P).
T1 sequence (P0A9L3 1-206 I65P): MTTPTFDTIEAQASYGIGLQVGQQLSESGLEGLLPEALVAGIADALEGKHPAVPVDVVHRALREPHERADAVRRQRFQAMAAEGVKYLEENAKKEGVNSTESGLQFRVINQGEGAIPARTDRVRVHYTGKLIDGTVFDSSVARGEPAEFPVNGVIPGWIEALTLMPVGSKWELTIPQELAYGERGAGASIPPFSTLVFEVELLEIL
Kind of data set: tryptophan fluorescence quenching titration. The data set is classed as binding.

Data set [2] has as its target T2, rFKBP22 (E. coli FKBP22) (Escherichia coli, UniProt P0A9L3, V72P).
T2 sequence (P0A9L3 1-206 V72P): T1 sequence (P0A9L3 1-206 I65P) with P65I, V72P
Briefly: tryptophan fluorescence quenching titration. The data set is classed as binding.

For data set [3], the target named is T3, rFKBP22 (E. coli FKBP22) (Escherichia coli, UniProt P0A9L3).
T3 sequence (P0A9L3 1-206): T1 sequence (P0A9L3 1-206 I65P) with P65I
Kind of data set: tryptophan fluorescence quenching titration. Type of data set: binding.

Data set [4] deals with T4, rFKBP22 (E. coli FKBP22) (Escherichia coli, UniProt P0A9L3, A82P).
T4 sequence (P0A9L3 1-206 A82P): T1 sequence (P0A9L3 1-206 I65P) with P65I, A82P
Kind of data set: tryptophan fluorescence quenching titration. The data set is classed as binding.

Data set [5] deals with the molecule itself. Kind of data set: cross-linking.

Changes are numbered by the printed parent chain. Numbers in names are those of the source.

Broadly, the Kd is the free concentration of one partner at which half of the binding sites on the other are occupied at equilibrium, for simple one-to-one binding. A lower Kd goes with a tighter complex. On to `CO[C@H]1C[C@@H]2CC[C@@H](C)[C@@](O)(O2)C(=O)C(=O)N2CCCC[C@H]2C(=O)O[C@H]([C@H](C)C[C@@H]2CC[C@@H](O)[C@H](OC)C2)CC(=O)[C@H](C)/C=C(\C)[C@@H](O)[C@@H](OC)C(=O)[C@H](C)C[C@H](C)/C=C/C=C/C=C/1C` [rapamycin], for which the Kd in data set [1] was found to be 5.06 ± 0.38 µM; in data set [2], 5.51 ± 0.26 µM; in data set [3], 5.43 ± 0.57 µM; in data set [4] it was 5.41 ± 0.31 µM.

B1: V72P, a rFKBP22 variant with a Val to Pro substitution at position 72 in the helix α3 (enzyme, Escherichia coli, UniProt P0A9L3 1-206, looked up)
chain: T1 sequence (P0A9L3 1-206 I65P) with P65I, V72P
A word on the stoichiometry N: it is the number of molecules, sites or subunits per partner or assembly. Take B1: the “stoichiometry N” value in data set [5] stood at 2.

B2: A82P, a rFKBP22 derivative harboring an Ala to Pro change at position 82 in the helix α3 (enzyme, Escherichia coli, UniProt P0A9L3 1-206, looked up)
chain: T1 sequence (P0A9L3 1-206 I65P) with P65I, A82P
For B2, the “stoichiometry N” value in data set [5] was 2.
